# ChEMBL document CHEMBL2434896, “Carbonic anhydrase inhibitors. Synthesis of heterocyclic 4-substituted pyridine-3-sulfonamide derivatives and their inhibition of the human cytosolic isozymes I and II and transmembrane tumor-associated isozymes IX and XII” (Eur J Med Chem, 2013)
# Activity calls are given as the source filed them. The rule behind the calls is not given here.
# Key:
# Carbonic anhydrase 9 = Carbonic anhydrase 9 (Homo sapiens, UniProt Q16790); assay: Inhibition of human carbonic anhydrase 9 after 15 mins by stopped flow CO2 hydration assay
# SF-268 = assay: Growth inhibition of human SF268 cells at 10 uM after 48 hrs by sulforhodamine B assay; type: functional
# LOX IMVI = assay: Growth inhibition of human LOXIMVI cells at 10 uM after 48 hrs by sulforhodamine B assay; type: functional
# SW-620 = assay: Growth inhibition of human SW620 cells at 10 uM after 48 hrs by sulforhodamine B assay; type: functional
# M14 = assay: Growth inhibition of human M14 cells at 10 uM after 48 hrs by sulforhodamine B assay; type: functional; settings: M14, 48 h, read-out: GI
# PC-3 = assay: Growth inhibition of human PC3 cells at 10 uM after 48 hrs by sulforhodamine B assay; type: functional
# MDA-MB-231 = assay: Growth inhibition of human MDA-MB-231 cells at 10 uM after 48 hrs by sulforhodamine B assay; type: functional
# RPMI-8226 = assay: Growth inhibition of human RPMI8226 cells at 10 uM after 48 hrs by sulforhodamine B assay; type: functional
# UO-31 = assay: Growth inhibition of human UO31 cells at 10 uM after 48 hrs by sulforhodamine B assay; type: functional; settings: UO-31, 48 h, read-out: GI
# HCC 2998 = assay: Growth inhibition of human HCC2998 cells at 10 uM after 48 hrs by sulforhodamine B assay; type: functional
# TK-10 = assay: Growth inhibition of human TK10 cells at 10 uM after 48 hrs by sulforhodamine B assay; type: functional
# A498 = assay: Growth inhibition of human A498 cells at 10 uM after 48 hrs by sulforhodamine B assay; type: functional
# EKVX = assay: Growth inhibition of human EKVX cells at 10 uM after 48 hrs by sulforhodamine B assay; type: functional
# SNB-19 = assay: Growth inhibition of human SNB19 cells at 10 uM after 48 hrs by sulforhodamine B assay; type: functional
# SF-295 = assay: Growth inhibition of human SF295 cells at 10 uM after 48 hrs by sulforhodamine B assay; type: functional
# 786-0 = assay: Growth inhibition of human 786-0 cells at 10 uM after 48 hrs by sulforhodamine B assay; type: functional
# BT-549 = assay: Growth inhibition of human BT549 cells at 10 uM after 48 hrs by sulforhodamine B assay; type: functional
# NCI-H23 = assay: Growth inhibition of human NCI-H23 cells at 10 uM after 48 hrs by sulforhodamine B assay; type: functional
# U-251 = assay: Growth inhibition of human U251 cells at 10 uM after 48 hrs by sulforhodamine B assay; type: functional
# MOLT-4 = assay: Growth inhibition of human MOLT4 cells at 10 uM after 48 hrs by sulforhodamine B assay; type: functional; settings: MOLT-4, 48 h, read-out: GI
# NCI-H322M = assay: Growth inhibition of human NCI-H322M cells at 10 uM after 48 hrs by sulforhodamine B assay; type: functional; settings: read-out: GI
# UACC-257 = assay: Growth inhibition of human UACC257 cells at 10 uM after 48 hrs by sulforhodamine B assay; type: functional
# NCI-H522 = assay: Growth inhibition of human NCI-H522 cells at 10 uM after 48 hrs by sulforhodamine B assay; type: functional
# HL-60(TB) = assay: Growth inhibition of human HL-60(TB) cells at 10 uM after 48 hrs by sulforhodamine B assay; type: functional
# Malme-3M = assay: Growth inhibition of human MALME-3M cells at 10 uM after 48 hrs by sulforhodamine B assay; type: functional; settings: read-out: GI
# SK-MEL-28 = assay: Growth inhibition of human SK-MEL-28 cells at 10 uM after 48 hrs by sulforhodamine B assay; type: functional, cell-based
# IGROV-1 = assay: Growth inhibition of human IGROV1 cells at 10 uM after 48 hrs by sulforhodamine B assay; type: functional
# NCI-H226 = assay: Growth inhibition of human NCI-H226 cells at 10 uM after 48 hrs by sulforhodamine B assay; type: functional
# OVCAR-5 = assay: Growth inhibition of human OVCAR5 cells at 10 uM after 48 hrs by sulforhodamine B assay; type: functional
# A549 = assay: Growth inhibition of human A549/ATCC cells at 10 uM after 48 hrs by sulforhodamine B assay; type: functional
# DU-145 = assay: Growth inhibition of human DU145 cells at 10 uM after 48 hrs by sulforhodamine B assay; type: functional
# OVCAR-8 = assay: Growth inhibition of human OVCAR8 cells at 10 uM after 48 hrs by sulforhodamine B assay; type: functional; settings: OVCAR-8, 48 h, read-out: GI
# SK-OV-3 = assay: Growth inhibition of human SKOV3 cells at 10 uM after 48 hrs by sulforhodamine B assay; type: functional
# HOP-62 = assay: Growth inhibition of human HOP62 cells at 10 uM after 48 hrs by sulforhodamine B assay; type: functional
# MCF7 = assay: Growth inhibition of human MCF7 cells at 10 uM after 48 hrs by sulforhodamine B assay; type: functional; settings: MCF7, 48 h, read-out: GI
# CAKI-1 = assay: Growth inhibition of human CAKI-1 cells at 10 uM after 48 hrs by sulforhodamine B assay; type: functional; settings: CAKI-1, 48 h, read-out: GI
# ACHN = assay: Growth inhibition of human ACHN cells at 10 uM after 48 hrs by sulforhodamine B assay; type: functional
# KM12 = assay: Growth inhibition of human KM12 cells at 10 uM after 48 hrs by sulforhodamine B assay; type: functional
# HCT-15 = assay: Growth inhibition of human HCT15 cells at 10 uM after 48 hrs by sulforhodamine B assay; type: functional; settings: HCT-15, 48 h, read-out: GI
# SK-MEL-2 = assay: Growth inhibition of human SK-MEL-2 cells at 10 uM after 48 hrs by sulforhodamine B assay; type: functional
# SNB-75 = assay: Growth inhibition of human SNB75 cells at 10 uM after 48 hrs by sulforhodamine B assay; type: functional
# SR = assay: Growth inhibition of human SR cells at 10 uM after 48 hrs by sulforhodamine B assay; type: functional; settings: read-out: GI
# UACC-62 = assay: Growth inhibition of human UACC62 cells at 10 uM after 48 hrs by sulforhodamine B assay; type: functional
# T47D = assay: Growth inhibition of human T47D cells at 10 uM after 48 hrs by sulforhodamine B assay; type: functional
# HCT-116 = assay: Growth inhibition of human HCT116 cells at 10 uM after 48 hrs by sulforhodamine B assay; type: functional; settings: HCT-116, 48 h, read-out: GI
# NCI-H460 = assay: Growth inhibition of human NCI-H460 cells at 10 uM after 48 hrs by sulforhodamine B assay; type: functional
# COLO 205 = assay: Growth inhibition of human COLO205 cells at 10 uM after 48 hrs by sulforhodamine B assay; type: functional
# MDA-MB-435 = assay: Growth inhibition of human MDA-MB-435 cells at 10 uM after 48 hrs by sulforhodamine B assay; type: functional
# NCI/ADR-RES = assay: Growth inhibition of human NCI-ADR-RES cells at 10 uM after 48 hrs by sulforhodamine B assay; type: functional
# SF-539 = assay: Growth inhibition of human SF539 cells at 10 uM after 48 hrs by sulforhodamine B assay; type: functional
# HT-29 = assay: Growth inhibition of human HT-29 cells at 10 uM after 48 hrs by sulforhodamine B assay; type: functional
# RXF 393 = assay: Growth inhibition of human RXF393 cells at 10 uM after 48 hrs by sulforhodamine B assay; type: functional
# OVCAR-4 = assay: Growth inhibition of human OVCAR4 cells at 10 uM after 48 hrs by sulforhodamine B assay; type: functional
# SK-MEL-5 = assay: Growth inhibition of human SK-MEL-5 cells at 10 uM after 48 hrs by sulforhodamine B assay; type: functional
# SN12C = assay: Growth inhibition of human SN12C cells at 10 uM after 48 hrs by sulforhodamine B assay; type: functional
# OVCAR-3 = assay: Growth inhibition of human OVCAR3 cells at 10 uM after 48 hrs by sulforhodamine B assay; type: functional
# Hs-578T = assay: Growth inhibition of human Hs 578T cells at 10 uM after 48 hrs by sulforhodamine B assay; type: functional
# CCRF-CEM = assay: Growth inhibition of human CCRF-CEM cells at 10 uM after 48 hrs by sulforhodamine B assay; type: functional
smiles,measurement,setting,value
CCOC(=O)CCc1c(C)nn(-c2ccncc2S(N)(=O)=O)c1C,Ki,Carbonic anhydrase 9,19.5 nM
NS(=O)(=O)c1cnccc1N1CCN(c2ccccc2F)CC1,growth inhibition (GI),SF-268,inactive
same,growth inhibition (GI),LOX IMVI,inactive
same,growth inhibition (GI),SW-620,inactive
same,inhibition of growth at 10 µM,M14,5%
same,growth inhibition (GI),PC-3,inactive
same,growth inhibition (GI),MDA-MB-231,inactive
same,growth inhibition (GI),RPMI-8226,inactive
same,inhibition of growth at 10 µM,UO-31,13%
same,growth inhibition (GI),HCC 2998,inactive
same,growth inhibition (GI),TK-10,inactive
same,growth inhibition (GI),A498,inactive
same,growth inhibition (GI),EKVX,inactive
same,growth inhibition (GI),SNB-19,inactive
same,growth inhibition (GI),SF-295,inactive
same,growth inhibition (GI),786-0,inactive
same,growth inhibition (GI),BT-549,inactive
same,growth inhibition (GI),NCI-H23,inactive
same,growth inhibition (GI),U-251,inactive
same,inhibition of growth at 10 µM,MOLT-4,2%
same,inhibition of growth at 10 µM,NCI-H322M,7%
same,growth inhibition (GI),UACC-257,inactive
same,Ki,Carbonic anhydrase 9,148 nM
same,growth inhibition (GI),NCI-H522,inactive
same,growth inhibition (GI),HL-60(TB),inactive
same,inhibition of growth at 10 µM,Malme-3M,4%
same,growth inhibition (GI),SK-MEL-28,inactive
same,growth inhibition (GI),IGROV-1,inactive
same,growth inhibition (GI),NCI-H226,inactive
same,growth inhibition (GI),OVCAR-5,inactive
same,growth inhibition (GI),A549,inactive
same,growth inhibition (GI),DU-145,inactive
same,inhibition of growth at 10 µM,OVCAR-8,2%
same,growth inhibition (GI),SK-OV-3,inactive
same,growth inhibition (GI),HOP-62,inactive
same,inhibition of growth at 10 µM,MCF7,6%
same,inhibition of growth at 10 µM,CAKI-1,3%
same,growth inhibition (GI),ACHN,inactive
same,growth inhibition (GI),KM12,inactive
same,inhibition of growth at 10 µM,HCT-15,1%
same,growth inhibition (GI),SK-MEL-2,inactive
same,growth inhibition (GI),SNB-75,inactive
same,inhibition of growth at 10 µM,SR,6%
same,growth inhibition (GI),UACC-62,inactive
same,growth inhibition (GI),T47D,inactive
same,inhibition of growth at 10 µM,HCT-116,3%
same,growth inhibition (GI),NCI-H460,inactive
same,growth inhibition (GI),COLO 205,inactive
same,growth inhibition (GI),MDA-MB-435,inactive
same,growth inhibition (GI),NCI/ADR-RES,inactive
same,growth inhibition (GI),SF-539,inactive
same,growth inhibition (GI),HT-29,inactive
same,growth inhibition (GI),RXF 393,inactive
same,growth inhibition (GI),OVCAR-4,inactive
same,growth inhibition (GI),SK-MEL-5,inactive
same,growth inhibition (GI),SN12C,inactive
same,growth inhibition (GI),OVCAR-3,inactive
same,growth inhibition (GI),Hs-578T,inactive
same,growth inhibition (GI),CCRF-CEM,inactive
NS(=O)(=O)c1cnccc1N1CCN(c2ccc(F)cc2)CC1,Ki,Carbonic anhydrase 9,239 nM
Cc1cc(C)n(-c2ccncc2S(N)(=O)=O)n1,Ki,Carbonic anhydrase 9,24.8 nM
